Experimental data: patent publication US20100311877A1, “NOVEL TRIAZINE DERIVATIVE, ULTRAVIOLET ABSORBER, AND RESIN COMPOSITION” (FUJIFILM Corporation, priority 2009, published 2010)

Tests used:
[1] = Light resistance of PMMA polymer film (remaining amount after metal halide lamp exposure); assay type: physicochemical; settings: 50-μm PMMA film on glass, 0.2 mass % compound in coating solution, illuminance 90 mW/cm^2, 63° C., humidity 50%, 400 hours after exposure, transmittance at maximum absorption wavelength
Description: A binder solution was prepared by dissolving 22 mass % of a PMMA resin (“[…] BR-80”, trade name; product of Mitsubishi Rayon) in methylene chloride. A coating solution was then prepared by dissolving 0.2 mass % of Exemplified compound (1) in the resulting binder solution. Using glass as a base material, the resulting coating solution was applied thereto with a 200 μm blade and dried at 100° C. for 10 minutes into a 50-μm thick coating to prepare a film. […] The absorbance of the film was measured with a spectrophotometer “UV-3600” (trade name; product of Shimadzu Corp). The film was exposed to light of a metal halide lamp (“Eye super UV tester”, trade name; product of Iwasaki Electric) under the conditions of illuminance of 90 mW/cm^2, temperature of 63° C., and humidity of 50%. The remaining amount of each compound 400 hours after exposure was measured. The remaining amount was computed in accordance with the following equation: Remaining amount(%)=100×(100-(transmittance after exposure))/(100-(transmittance before exposure)) The transmittance is a value measured at the maximum absorption wavelength of each compound.

[2] = Measurement of pKa (perchloric acid titration, absorption spectrum); assay type: physicochemical; settings: in acetonitrile, 70% perchloric acid (acetic acid as solvent) added dropwise; ratio of triazine-free compound and proton adduct from absorbance at λmax
Description: Exemplified compound (1) was dissolved in acetonitrile to give its absorption coefficient of 1. […] At that time, a solution absorption spectrum was measured and a ratio of a triazine-free compound and a proton adduct at each pH was computed from the absorbance at λmax. The value of pKa was determined from a point at which the ratio became 1. […] The absorption spectrum was measured using a spectrophotometer “UV-3600” (trade name; product of Shimadzu Corp), while pH was measured using a pH meter “H[…]” (trade name; product of Toa Denpa Kogyo).

Remaining amount (%) [1] [%]	pKa [2]	SMILES
63	-4.9	CCCCCCOc1ccc(-c2nc(-c3ccccc3)nc(-c3ccccc3)n2)c(O)c1 [Comparative compound A]
21	-4.4	CCCCCCCCOc1ccc(-c2nc(-c3ccc(C)cc3C)nc(-c3ccc(C)cc3C)n2)c(O)c1 [Comparative compound B]
